From patent publication US20260034094A1, “COMPOSITIONS AND METHODS FOR INDUCING FERROPTOSIS” (Kojin Therapeutics, Inc., priority 2022, published 2026)
“And” between values parts separate entries of the source, which are not always exact repeats. Equal entries are not always repeated. Where two headings read alike, the source gives them in different places.

Assays:
[1] = molecular target: human recombinant GCL (Homo sapiens (Human), UniProt P48506); assay: GCL enzyme profiling assay (ADP-Glo luminescence); format: biochemical; details: human recombinant GCL 5 nM, 1 h preincubation with ATP
Summary of the method: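 ADP-Glo luminescence readout; 5 nM enzyme preincubated 1 h at 22 °C with 0.6 mM ATP, then started with 1 mM glutamate and 1.2 mM α-aminobutyrate, stopped after 2 h. Buffer: HEPES pH 7.5, MgCl2, DTT, BSA, 0.2% F-127, 1% DMSO. IC50 from four-parameter logistic fit.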

[2] = tested on: RKN cells; assay: RKN cell profiling assay (cell viability, CellTiter-Glo); format: cell-based; details: 96 h exposure
Summary of the method: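 Cells seeded at 1,000/well in F-12 with 10% FBS, left to adhere 24 h, then compound-treated for 96 h at 0.5% final DMSO. Viability by CellTiter-Glo luminescence; EC50 from four-parameter logistic fit. Ferroptosis rescue runs included 1.5 μM ferrostatin-1 added at seeding.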

[3] = 96 h, read-out: Cell Killing EC50
[4] = read-out: GCL IC50 (mM), individual values in parentheses

Chain of human recombinant GCL (P48506 whole entry): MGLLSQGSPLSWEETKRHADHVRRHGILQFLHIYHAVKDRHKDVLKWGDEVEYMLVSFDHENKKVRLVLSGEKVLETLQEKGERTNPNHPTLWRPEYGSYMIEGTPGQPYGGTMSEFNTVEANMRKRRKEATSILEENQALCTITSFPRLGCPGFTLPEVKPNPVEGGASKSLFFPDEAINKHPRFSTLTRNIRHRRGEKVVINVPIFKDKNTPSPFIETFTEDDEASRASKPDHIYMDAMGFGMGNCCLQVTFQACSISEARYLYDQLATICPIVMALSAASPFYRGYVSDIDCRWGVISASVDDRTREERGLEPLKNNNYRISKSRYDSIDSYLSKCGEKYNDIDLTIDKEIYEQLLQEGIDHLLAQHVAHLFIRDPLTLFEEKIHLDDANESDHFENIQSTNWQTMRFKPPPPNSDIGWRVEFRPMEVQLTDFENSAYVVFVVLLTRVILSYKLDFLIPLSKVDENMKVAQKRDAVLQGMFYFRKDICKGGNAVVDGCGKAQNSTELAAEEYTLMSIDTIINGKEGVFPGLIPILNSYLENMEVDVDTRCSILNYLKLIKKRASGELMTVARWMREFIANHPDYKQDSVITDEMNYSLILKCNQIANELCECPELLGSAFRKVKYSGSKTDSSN

SMILES | IC50 ([1]; read-out: GCL IC50) | EC50 [2, 3] [mM] | further results
CCCCNC(=O)[C@@H](N)CCS(=N)(=O)CCCC(F)(F)F (stereo partly shown) [Compound 131] | > 2 mM | < 1 | 
N=S(=O)(CCCC(F)(F)F)CC[C@H](N)C(=O)Nc1ccccc1 (stereo partly shown) [Compound 132] | > 2 mM | < 1 | 
N=S(=O)(CCCC1CC1)CC[C@H](N)C(=O)O (stereo partly drawn) [Compound 134, (2S)-2-amino-4-(3-cyclopropylpropylsulfonimidoyl)butanoic acid] | 0.02 to 2 mM | ≥ 1 | 
N=S(=O)(CC[C@H](N)C(=O)O)CCC1(O)CC1 (stereo partly drawn) [Compound 135, (2S)-2-amino-4-(2-(1-hydroxycyclopropyl)ethylsulfonimidoyl)butanoic acid] | 0.02 to 2 mM | < 1 | 
N=S(=O)(CC[C@H](N)C(=O)O)CC(=O)C1CCCC1 (stereo partly drawn) [Compound 136, (2S)-2-amino-4-(2-cyclopentyl-2-oxoethylsulfonimidoyl)butanoic acid] | 0.02 to 2 mM | ≥ 1 | 
N=S(=O)(CC[C@H](N)C(=O)O)CC(O)C1CCCC1 (stereo partly shown) [Compound 137] | 0.02 to 2 mM | < 1 | EC50 ([2]; 96 h, read-out: Cell Killing EC50 (mM), individual values in parentheses): 1.47 mM; EC50 ([2]; read-out: Cell Killing EC50 (mM), individual values in parentheses): 0.92 mM
N=[S@](=O)(CCCC(F)(F)F)CC[C@H](N)C(=O)O [Compound 139, (S)-2-amino-4-((S)-4,4,4-trifluorobutylsulfonimidoyl)butanoic acid] | ≤ 0.02 mM | < 1 | 
N=S(=O)(CC[C@H](N)C(=O)O)Cc1ccccc1 (stereo partly shown) [Compound 140] | > 2 mM | ≥ 1 | 
N=S(=O)(CCC1CCCC1)CC[C@H](N)C(=O)O (stereo partly shown) [Compound 141] | ≤ 0.02 mM | < 1 | 
N=S(=O)(CCC1CCCCC1)CC[C@H](N)C(=O)O (stereo partly shown) [Compound 142] | ≤ 0.02 mM | ≥ 1 | 
N=S(=O)(CCC1C2CC3CC(C2)CC1C3)CC[C@H](N)C(=O)O (stereo partly shown) [Compound 143] | 0.02 to 2 mM | ≥ 1 | 
CC#CCS(=N)(=O)CC[C@H](N)C(=O)O (stereo partly shown) [Compound 144] | 0.02 to 2 mM | ≥ 1 | 
N=S(=O)(CC[C@H](N)C(=O)O)CCN1CCCC1=O (stereo partly shown) [Compound 145] | > 2 mM | ≥ 1 | 
CC(C)(C)[C@@H](N)CS(=N)(=O)CC[C@H](N)C(=O)O (stereo partly shown) [Compound 147] | > 2 mM | ≥ 1 | 
CC(C)(C)[C@H](N)CS(=N)(=O)CC[C@H](N)C(=O)O (stereo partly shown) [Compound 148] | 0.02 to 2 mM | ≥ 1 | 
N=S(=O)(CCCC(F)(F)F)CC[C@H](N)C(=O)O (stereo partly drawn) [Compound 150, (2S)-2-amino-4-(4,4,4-trifluorobutylsulfonimidoyl)butanoic acid] | ≤ 0.02 mM | < 1 | 
N#CC1(CCS(=N)(=O)CC[C@H](N)C(=O)O)CC1 (stereo partly shown) [Compound 151] | 0.02 to 2 mM | ≥ 1 | 
CC(C)(CCS(=N)(=O)CC[C@H](N)C(=O)O)C(F)(F)F (stereo partly shown) [Compound 152] | 0.02 to 2 mM | < 1 | 
N=S(=O)(CC[C@H](N)C(=O)O)CCC1(O)CCC1 (stereo partly shown) [Compound 153] | 0.02 to 2 mM | < 1 | 
N=S(=O)(CCC(O)C(F)(F)F)CC[C@H](N)C(=O)O (stereo partly drawn) [Compound 154, (2S)-2-amino-4-(4,4,4-trifluoro-3-hydroxybutylsulfonimidoyl)butanoic acid] | ≤ 0.02 mM | < 1 | 
COC(CCS(=N)(=O)CC[C@H](N)C(=O)O)C(F)(F)F (stereo partly shown) [Compound 155] | ≤ 0.02 mM | < 1 | 
N=S(=O)(/C=C/c1ccccc1)CC[C@H](N)C(=O)O (stereo partly shown) [Compound 156] | 0.02 to 2 mM | ≥ 1 | 
N=S(=O)(CCC1CCOCC1)CC[C@H](N)C(=O)O (stereo partly shown) [Compound 157] | 0.02 to 2 mM | ≥ 1 | 
COC(C)(C)CCS(=N)(=O)CC[C@H](N)C(=O)O (stereo partly shown) [Compound 158] | 0.02 to 2 mM | < 1 | 
CCCCS(=N)(=O)CC[C@H](NC)C(=O)O (stereo partly shown) [Compound 159] | > 2 mM | ≥ 1 | 
N=S(=O)(CCC1CC(F)(F)C1)CC[C@H](N)C(=O)O (stereo partly shown) [Compound 161] | 0.02 to 2 mM | < 1 | 
CC(C)OCCCS(=N)(=O)CC[C@H](N)C(=O)O (stereo partly shown) [Compound 162] | 0.02 to 2 mM | ≥ 1 | 

SMILES | IC50 ([1]; read-out: GCL IC50) | EC50 [2, 3] [mM] | further results
CC(C)(F)CCS(=N)(=O)CC[C@H](N)C(=O)O (stereo partly shown) [Compound 163] | 0.02 to 2 mM | < 1 | 
COCCS(=N)(=O)CC[C@H](N)C(=O)O (stereo partly shown) [Compound 164] | 0.02 to 2 mM | ≥ 1 | 
N=S(=O)(CCC1CCC1)CC[C@H](N)C(=O)O (stereo partly shown) [Compound 165] | ≤ 0.02 mM | < 1 | 
CC(C)OCCS(=N)(=O)CC[C@H](N)C(=O)O (stereo partly shown) [Compound 166] | 0.02 to 2 mM | ≥ 1 | 
COC(=O)C(C)(C)CCS(=N)(=O)CC[C@H](N)C(=O)O (stereo partly shown) [Compound 167] | 0.02 to 2 mM | < 1 | 
N=S(=O)(CC[C@H](N)C(=O)O)Cc1ccccc1C(=O)O (stereo partly shown) [Compound 168] | 0.02 to 2 mM | ≥ 1 | 
N=S(=O)(CCCC(F)F)CC[C@H](N)C(=O)O (stereo partly shown) [Compound 169] | ≤ 0.02 mM and 0.02 to 2 mM | < 1 | IC50 [1, 4]: 0.0102 mM and 0.1 mM
N=S(=O)(CCOC(F)F)CC[C@H](N)C(=O)O (stereo partly shown) [Compound 170] | 0.02 to 2 mM | ≥ 1 | 
CC(C)(C#N)CCS(=N)(=O)CC[C@H](N)C(=O)O (stereo partly shown) [Compound 171] | 0.02 to 2 mM | ≥ 1 | 
CCC(CC(F)(F)F)CS(=N)(=O)CC[C@H](N)C(=O)O (stereo partly shown) [Compound 172] | 0.02 to 2 mM | ≥ 1 | 
N=S(=O)(CC[C@H](N)C(=O)O)CCC1(F)CCC1 (stereo partly shown) [Compound 173] | 0.02 to 2 mM | < 1 | 
CC(O)(CCS(=N)(=O)CC[C@H](N)C(=O)O)C(F)(F)F (stereo partly drawn) [Compound 174, (2S)-2-amino-4-(4,4,4-trifluoro-3-hydroxy-3-methylbutylsulfonimidoyl)butanoic acid] | 0.02 to 2 mM | < 1 | 
N=S(=O)(CCOCC(F)(F)F)CC[C@H](N)C(=O)O (stereo partly shown) [Compound 175] | 0.02 to 2 mM | ≥ 1 | 
COC(CC[S@@](=N)(=O)CC[C@H](N)C(=O)O)C(F)(F)F (stereo partly shown) [Compound 176] | > 2 mM | ≥ 1 | 
COC(CC[S@@](=N)(=O)CC[C@H](N)C(=O)O)C(F)(F)F (stereo partly shown) [Compound 177] | > 2 mM |  | EC50 ([2]; read-out: Cell Killing EC50): ≥ 1 mM
COC(CC[S@](=N)(=O)CC[C@H](N)C(=O)O)C(F)(F)F (stereo partly shown) [Compound 178] | ≤ 0.02 mM | < 1 | 
COC(CC[S@](=N)(=O)CC[C@H](N)C(=O)O)C(F)(F)F (stereo partly shown) [Compound 179] | ≤ 0.02 mM |  | EC50 ([2]; read-out: Cell Killing EC50): < 1 mM
N=S(=O)(CCC1CCCC1(F)F)CC[C@H](N)C(=O)O (stereo partly shown) [Compound 180] | ≤ 0.02 mM | ≥ 1 | 
N=S(=O)(CCC1COC1)CC[C@H](N)C(=O)O (stereo partly shown) [Compound 181] | 0.02 to 2 mM | ≥ 1 | 
N=S(=O)(CC[C@H](N)C(=O)O)CCC1(CO)CCC1 (stereo partly shown) [Compound 182] | 0.02 to 2 mM | < 1 | 
CC(C)(N)CCS(=N)(=O)CC[C@H](N)C(=O)O (stereo partly shown) [Compound 183] | > 2 mM | ≥ 1 | 
CC(C)(CO)CCS(=N)(=O)CC[C@H](N)C(=O)O (stereo partly shown) [Compound 184] | 0.02 to 2 mM | < 1 | 
CC1(CCS(=N)(=O)CC[C@H](N)C(=O)O)COC1 (stereo partly shown) [Compound 185] | 0.02 to 2 mM |  | EC50 ([2]; read-out: Cell Killing EC50): ≥ 1 mM
N=S(=O)(CCC(C(F)(F)F)C(F)(F)F)CC[C@H](N)C(=O)O (stereo partly shown) [Compound 186] | ≤ 0.02 mM and 0.02 to 2 mM | < 1 | IC50 [1, 4]: 0.022 mM and 0.0183 mM
CC(C)(C)CCS(=N)(=O)CC[C@H](N)C(=O)O (stereo partly shown) [Compound 187] | 0.02 to 2 mM | < 1 | 
N=S(=O)(CC[C@H](N)C(=O)O)CCC1(C(N)=O)CCC1 (stereo partly drawn) [Compound 188, (2S)-2-amino-4-(2-(1-carbamoylcyclobutyl)ethylsulfonimidoyl)butanoic acid] | 0.02 to 2 mM | < 1 | 
CCOC(=O)C1(CCS(=N)(=O)CC[C@H](N)C(=O)O)CCC1 (stereo partly shown) [Compound 189] | 0.02 to 2 mM | < 1 | 
